B1: RELA K5Q: RELA mutant converting five lysine residues (K122, K123, K310, K314, K315) to glutamine, acetylation mimic (protein, UniProt Q04206 1-551, looked up, variant K122Q K123Q K310Q K314Q K315Q)
Transcription factor p65: MDELFPLIFPAEPAQASGPYVEIIEQPKQRGMRFRYKCEGRSAGSIPGERSTDTTKTHPTIKINGYTGPGTVRISLVTKDPPHRPHPHELVGKDCRDGFYEAELCPDRCIHSFQNLGIQCVQQRDLEQAISQRIQTNNNPFQVPIEEQRGDYDLNAVRLCFQVTVRDPSGRPLRLPPVLSHPIFDNRAPNTAELKICRVNRNSGSCLGGDEIFLLCDKVQKEDIEVYFTGPGWEARGSFSQADVHRQVAIVFRTPPYADPSLQAPVRVSMQLRRPSDRELSEPMEFQYLPDTDDRHRIEEKRKRTYETFQSIMQQSPFSGPTDPRPPPRRIAVPSRSSASVPKPAPQPYPFTSSLSTINYDEFPTMVFPSGQISQASALAPAPPQVLPQAPAPAPAPAMVSALAQAPAPVPVLAPGPPQAVAPPAPKPTQAGEGTLSEALLQLQFDDEDLGALLGNSTDPAVFTDLASVDNSEFQQLLNQGIPVAPHTTEPMLMEYPEAITRLVTGAQRPPDPAPAPLGAPGLPNGLLSGDEDFSSIADMDFSALLSQISS

Legend:
Type in all cases: cell-based, human
MDDC = assay: IFN-I/III quantification (LEGENDplex) in MDDC after STING stimulation; conditions: lentivector overexpression in MDDC, cGAMP 6 μg/ml; for IFN-I/III response to cGAMP compared to the control condition: FIG. 2D
Procedure: (§1) Plasmapheresis blood pockets were obtained from healthy adult volunteers after informed consent from the EFS (Establishment of French blood collection). Peripheral blood mononuclear cells (PBMCs) were isolated using Ficoll-Paque Plus (GE-17144003) and left overnight at 4° C. in RPMI (Thermo fischer #61870-010) with 10% heat-decomplemented fetal bovine serum (FBS, Eurobio #CVFSVFO0-01). CD14+ cells were enriched by positive selection (Miltenyi #130-050-201), the CD14 negative fraction was subsequently used to isolate total CD4+ T cells by negative selection (Stem Cell #17952). CD14+ cells were cultured in RPMI containing 10% FBS, 5% Penicillin-Streptomycin (PS, Thermo Fisher #10378-016), 50 μg/ml Gentamicin (Thermo Fisher #15750-045) and 10 mM HEPES (Thermo Fisher #15630-056). CD14+ cells were differentiated ex vivo into MDDC by supplementing the culture media with 50 ng/ml IL-4 (Miltenyi #130-093-922) and 10 ng/ml GM-CSF (Miltenyi #130-093-867). MDDC were used for experiments 3 or 4 days following the start of the culture. CD14+ cells were differentiated ex vivo into macrophages by adding 50 ng/ml MCSF (Miltenyi #130-096-492) to the culture media containing RPMI with 1% PS, 5% FBS and 5% human serum (Sigma #H4522). MDM were used 7 days following culture. Freshly isolated CD4+ T cells were cultured in X-VIVO 15 (Lonza #BE02-060F) and activated using anti-CD3 and anti-CD28 Dynabeads (fisher scientific #10548353) at the ratio of 1:5 (bead:cell). 100 U/ml human IL-2 (Immunotools #11340027) was added to cultures 2 days following TCR stimulation and media with IL-2 was replenished every 48 hours. To assess proliferation, freshly isolated CD4+ T cells were stained with cell proliferation dye (thermo fischer #65-0840-85) prior to TCR stimulation.
(§2) CD14+ cells were plated at 1 million cells/ml and transduced with equal volumes of freshly harvested SIV-VLPs and pTRIP-SFFV vectors in the presence of 8 μg/ml protamine (Sigma #P4020). CD4+ T cells were transduced with lentivectors 24 hours post-TCR stimulation in 100 μl of cells (0.2 million cells) and 100 μl of freshly harvested lentivirus in the presence of 8 μg/ml protamine. T cells were spinoculated at 1200 g for 2 hours at 25° C. 0.5 million THP-1 cells in 500 μl media (RPMI 10% FBS 1% PS) were transduced with 500 μl freshly harvested lentivirus in the presence of 8 μg/ml protamine. 1 μg/ml Puromycin (Invivogen #ant-pr-1) was added 2 days post-transduction when cells were transduced with pLKO.1-puro plasmid.
(§3) For stimulation of STING by extracellular ligands, 2.5 μg of ADUS100 (invivogen #tlrl-nacda2r-01) or 2′3′-cGAMP (cGAMP, invivogen #tlrl-nacga23-02) was added to 100,000 cells in 100 μl media either on freshly isolated primary cells or 3-4 days post differentiation for MDDC and 3 days post-TCR stimulation for CD4+ T cells. Cells and supernatant were harvested 18-24 hours post stimulation. For delivery of STING ligands after permeabilization, T cells were used 3 or 4 days post TCR stimulation and MDDC were used 3-4 days following differentiation. 150,000 cells were plated in round bottom 96-well plate. Media was removed by centrifugation and 20 μl 2× permeabilization buffer (100 mM HEPES, 200 mM KCl, 6 mM MgCl2, 0.2 mM DTT, 170 mM Sucrose, 2 mM ATP, 2 mM GTP, 0.4% bovine serum albumin (BSA), 20 μg/ml digitonin) and 20 μl cGAMP (12 μg/ml) was added to cells. 18 to 20 hours following stimulation supernatants and cells were harvested. Cells were stained with a fixable viability dye (Invitrogen #65-0865-14) and acquired on a FACSVerse (BD).
For experiments with conditioned media, CD4+ T cell- and MDDC-conditioned media refer to […] filtered conditioned media from cultures of activated CD4+ T cell and MDDC, respectively. CD4+ T cells were pretreated with 100 μl of MDDC-conditioned media or of fresh MDDC culture media, 24 hours prior to cGAMP stimulation. […]

[1] = system: STING, TBK1, IRF3, RELA, IRF7; assay: Western blot of key signaling proteins involved in STING signaling; conditions: for endogenous RELA expression: overexpression in CD4+ T cells and MDDC, FIG. 2C
Procedure: 0.5 million cells were lysed for 30 minutes on ice in 50 μl RIPA buffer (50 mM Tris HCl, 150 mM NaCl, 0.1% SDS, 0.5% DOC, 1% NP-40) with Protease inhibitor (Roche #1187358001). To evaluate, phospho-proteins 50 mM NaF and 1 mM sodium orthovanadate were added to the lysis buffer. Protein lysates were cleared by centrifugation at 12,000 g for 10 to 12 minutes at 4° C. 10 μl of 6× Laemmli buffer (fisher scientific #J61337) was added to 50 μl protein lysates and samples were boiled at 95° C. for 15 minutes. Protein samples were resolved on 4%-20% Biorad precast SDS-PAGE gels (#5671125) and transferred onto PVDF membranes (BioRad #1704157). Membranes were blocked in 5% non-fat dry milk in PBS 0.1% tween or in TBS 5% BSA 0.1% Tween to detect phosphorylated proteins. Primary antibodies were used at 1:1000:phospho-STING (clone-D7C3S), STING (clone-D2P2F), serine 172 phospho-TBK1 (clone-D52C2), TBK1 (clone-D11B4), serine 396 phospho IRF3 (clone-D6O1M), IRF3 (clone-D83B9), RELA (clone-C22B4), IRF7 (clone-12G9A36), cGAS (clone-D1 D3G), Actin (clone-C4), Sendai viral proteins (Biozol #MBL-PD029). Secondary anti-rabbit or anti-mouse antibody were used at 1:10,000 (santa cruz #sc-2357, #sc-516102). ECL signal (Biorad #1705061 and #1705062) was recorded on a ChemiDoc Touch Biorad Imager. Data was analyzed and quantified with Image Lab software (Biorad). In figures, dotted lines indicate reordering of lanes from a single original membrane for visualization purpose.

CD4+ T cells [2] = assay: IFN-I/III quantification (LEGENDplex) in CD4+ T cells, baseline or after STING stimulation; conditions: for IFNλ1 after cGAMP stimulation: 2D, 2F
Procedure: as §1, §2
as §3, with “(BD). […]” for “(BD).”
Where indicated, cells were treated with 5-Azacytidine (5AZA, Sigma #A2385) 48 hours prior to cGAMP stimulation. Fresh 5AZA was added daily to cells, and media was replenished with 5AZA following cGAMP stimulation. 100 nM Trichostatin A (TSA) (sigma #T1952) was added to cells following cGAMP stimulation and left overnight. […]

CD4+ T cells [3] = assay: Bulk RNAseq of activated CD4+ T cells after cGAMP; conditions: five hours after cGAMP 6 μg/ml
Procedure: Five hours following cGAMP (6 μg/ml) stimulation of activated CD4+ T cells, total RNA was extracted (Macherey-Nagel #740955.50). […] RNA sequencing libraries were prepared from 500 ng of total RNA using the Illumina TruSeq Stranded mRNA Library preparation kit. A first step of polyA selection using magnetic beads was performed to focus sequencing on polyadenylated transcripts. After fragmentation, cDNA synthesis was performed and resulting fragments were used for dA-tailing and ligated to the TruSeq indexed adapters. PCR amplification was performed to create the final cDNA library (with 13 cycles). After quantification of PCR products, sequencing was carried out using 2*100 cycles (paired-end reads, 100 nucleotides) on a Novaseq6000 instrument, targeting 25M clusters. The data was aligned to the hg19 (ENSEMBL annotation: v.74) genome using the RNA-seq pipeline of the Curie bioinformatics platform, rnaseq v3.1.1. Reads were trimmed with TrimGalore (v.0.6.2) and aligned on the reference genome using STAR (v 2.6.1) ^71. Quality control was done with picard (v.2.18.15), RSeQC (v.2.6.4) and preseq (v.2.0.3)^72. Read counts were generated with STAR. Quality reports were generated with MultiQC (v.1.7). […]

[4] = lentivector overexpression in CD4+ T cells, FIG. 2B

Molecule	IFN-I/III response to cGAMP, RNA and protein levels (MDDC; FIG. 2B)	IFN-I/III response to cGAMP compared to the control condition (MDDC)	endogenous RELA expression [1]	IFNλ1 after cGAMP stimulation (CD4+ T cells [2]; [4])	IFN-I/III response to cGAMP, RNA and protein levels (CD4+ T cells [2]; lentivector overexpression in CD4+ T cells, cGAMP 6 μg/ml, FIG. 2B)	IRF7 expression (RNAseq) (CD4+ T cells [3])	phosphorylated levels of STING, TBK1 and IRF3, CD4+ T cells versus MDDC ([1]; 6 hours after cGAMP 6 μg/ml, FIG. 1G)	IFNβ protein (CD4+ T cells [2]; cGAMP delivered by digitonin-mediated membrane permeabilization, FIG. 1F)	IFN response to STING ligands (CD4+ T cells [2]; resting blood CD4+ T cells, soluble ligand 1 μg or 2.5 μg, FIG. 1B)
RELA: wild type human RELA protein (transcription factor p65, Uniprot Q04206), overexpressed from lentivector [reference compound]	did not significantly enhance	remained unchanged	no impact	tendency for increased IFNλ1	did not significantly enhance	–	–	–	–
Nc1nc2c(ncn2[C@@H]2O[C@@H]3COP(=O)(O)O[C@H]4[C@@H](O)[C@H](n5cnc6c(N)ncnc65)O[C@@H]4COP(=O)(O)O[C@@H]2[C@@H]3O)c(=O)[nH]1 [cGAMP, 2′3′-cGAMP, reference compound]	–	–	–	–	–	induced	identical	undetectable	undetectable
B1	–	remained unchanged	no impact	abrogated	–	–	–	–	–

Reference: US20250213614A1, “Modified RELA Protein for Inducing Interferon Expression and Engineered Immune Cells with Improved Interferon Expression” (Institut Curie, priority 2022, published 2025)
